ChEMBL document CHEMBL4619795, “Establishing the Structure-Activity Relationship of Daptomycin” (ACS Med Chem Lett, 2020)

Tests used:
Type in all cases: functional
Enterococcus [1] = test: Antibacterial activity against Enterococcus 6 assessed as bacterial growth inhibition in presence of 50 ug/ml calcium ions by CLSI protocol based broth microdilution method
Staphylococcus aureus [2] = test: Antibacterial activity against Staphylococcus aureus ATCC 29213 assessed as bacterial growth inhibition in presence of 50 ug/ml calcium ions by CLSI protocol based broth microdilution method
Staphylococcus aureus [3] = test: Antibacterial activity against methicillin-resistant Staphylococcus aureus 11 assessed as bacterial growth inhibition in presence of 50 ug/ml calcium ions by CLSI protocol based broth microdilution method
Enterococcus [4] = test: Antibacterial activity against Enterococcus 60 assessed as bacterial growth inhibition in presence of 50 ug/ml calcium ions by CLSI protocol based broth microdilution method
Staphylococcus aureus [5] = test: Antibacterial activity against methicillin-resistant Staphylococcus aureus 14 assessed as bacterial growth inhibition in presence of 50 ug/ml calcium ions by CLSI protocol based broth microdilution method
Staphylococcus aureus [6] = test: Antibacterial activity against methicillin-resistant Staphylococcus aureus 88 assessed as bacterial growth inhibition in presence of 50 ug/ml calcium ions by CLSI protocol based broth microdilution method
Enterococcus faecalis [7] = test: Antibacterial activity against Enterococcus faecalis ATCC 29212 assessed as bacterial growth inhibition in presence of 50 ug/ml calcium ions by CLSI protocol based broth microdilution method
Enterococcus faecalis [8] = test: Antibacterial activity against Streptococcus faecalis assessed as bacterial growth inhibition in presence of 50 ug/ml calcium ions by CLSI protocol based broth microdilution method
Staphylococcus aureus [9] = test: Antibacterial activity against methicillin-resistant Staphylococcus aureus 86 assessed as bacterial growth inhibition in presence of 50 ug/ml calcium ions by CLSI protocol based broth microdilution method

Row | SMILES | MIC (Enterococcus [1]) [µg/mL] | MIC (Staphylococcus aureus [2]) [µg/mL] | MIC (Staphylococcus aureus [3]) [µg/mL] | MIC (Enterococcus [4]) [µg/mL] | MIC (Staphylococcus aureus [5]) [µg/mL] | MIC (Staphylococcus aureus [6]) [µg/mL] | MIC (Enterococcus faecalis [7]) [µg/mL] | MIC (Enterococcus faecalis [8]) [µg/mL] | MIC (Staphylococcus aureus [9]) [µg/mL]
1 | CCCCCCCCCC(=O)N[C@@H](Cc1c[nH]c2ccccc12)C(=O)N[C@@H](CC(N)=O)C(=O)N[C@@H](CC(=O)O)C(=O)N[C@@H]1C(=O)NCC(=O)N[C@@H](CC(N)=O)C(=O)N[C@@H](CC(=O)O)C(=O)N[C@H](C)C(=O)N[C@@H](CC(=O)O)C(=O)NCC(=O)N[C@H](CO)C(=O)N[C@@H]([C@@H](C)CC(=O)O)C(=O)N[C@@H](CC(=O)c2ccccc2N)C(=O)O[C@@H]1C | ≥ 32 | ≥ 32 | ≥ 32 | ≥ 32 | ≥ 32 | ≥ 32 | ≥ 32 | ≥ 32 | ≥ 32
2 | C[C@H]1NC(=O)[C@H](CC(=O)O)NC(=O)[C@H](CCCN)NC(=O)CNC(=O)[C@@H](NC(=O)[C@H](CC(=O)O)NC(=O)[C@H](CC(N)=O)NC(=O)[C@H](Cc2c[nH]c3ccccc23)NC(=O)c2ccc(C#CC#Cc3ccccc3)cc2)[C@@H](C)OC(=O)[C@H](CC(=O)c2ccccc2N)NC(=O)[C@H]([C@@H](C)CC(=O)O)NC(=O)[C@@H](CO)NC(=O)CNC(=O)[C@H](CC(=O)O)NC1=O | 4 | 0.5 | 1 | 1 | 0.5 | 0.5 | 1 | 1 | 0.5
3 | CCCCCCCCCC(=O)N[C@@H](Cc1cccc2ccccc12)C(=O)N[C@@H](CC(N)=O)C(=O)N[C@@H](CC(=O)O)C(=O)N[C@@H]1C(=O)NCC(=O)N[C@@H](CCCN)C(=O)N[C@@H](CC(=O)O)C(=O)N[C@H](C)C(=O)N[C@@H](CC(=O)O)C(=O)NCC(=O)N[C@H](CO)C(=O)N[C@@H]([C@@H](C)CC(=O)O)C(=O)N[C@@H](CC(=O)c2ccccc2N)C(=O)O[C@@H]1C | 2 | 0.25 | 1 | 2 | 0.25 | 0.125 | 2 | 0.5 | 0.25
4 | CCCCCCCCCC(=O)N[C@@H](Cc1ccc(OC)cc1)C(=O)N[C@@H](CC(N)=O)C(=O)N[C@@H](CC(=O)O)C(=O)N[C@@H]1C(=O)NCC(=O)N[C@@H](CCCN)C(=O)N[C@@H](CC(=O)O)C(=O)N[C@H](C)C(=O)N[C@@H](CC(=O)O)C(=O)NCC(=O)N[C@H](CO)C(=O)N[C@@H]([C@@H](C)CC(=O)O)C(=O)N[C@@H](CC(=O)c2ccccc2N)C(=O)O[C@@H]1C | ≥ 32 | 2 | 16 | ≥ 32 | 4 | 2 | ≥ 32 | 8 | 2
5 | CCCCCCCCCC(=O)N[C@@H](Cc1c[nH]c2ccccc12)C(=O)N[C@@H](CC(N)=O)C(=O)N[C@@H](CC(=O)O)C(=O)N[C@@H]1C(=O)NCC(=O)N[C@@H](C)C(=O)N[C@@H](CC(=O)O)C(=O)N[C@H](C)C(=O)N[C@@H](CC(=O)O)C(=O)NCC(=O)N[C@H](CO)C(=O)N[C@@H]([C@@H](C)CC(=O)O)C(=O)N[C@@H](CC(=O)c2ccccc2N)C(=O)O[C@@H]1C | 2 | 0.5 | 0.5 | 1 | 0.25 | 1 | 4 | 4 | 0.5
6 | C[C@H]1NC(=O)[C@H](CC(=O)O)NC(=O)[C@H](CCCN)NC(=O)CNC(=O)[C@@H](NC(=O)[C@H](CC(=O)O)NC(=O)[C@H](CC(N)=O)NC(=O)[C@H](Cc2c[nH]c3ccccc23)NC(=O)c2ccc(C#Cc3ccc(-c4ccccc4)cc3)cc2)[C@@H](C)OC(=O)[C@H](CC(=O)c2ccccc2N)NC(=O)[C@H]([C@@H](C)CC(=O)O)NC(=O)[C@@H](CO)NC(=O)CNC(=O)[C@H](CC(=O)O)NC1=O | 0.5 | 2 | 1 | 2 | 1 | 1 | 0.5 | 2 | 2
7 | CCCCCCCCCC(=O)N[C@@H](Cc1c[nH]c2ccccc12)C(=O)N[C@@H](CC(N)=O)C(=O)N[C@@H](CC(=O)O)C(=O)N[C@@H]1C(=O)NCC(=O)N[C@@H](CCCN)C(=O)N[C@@H](CC(=O)O)C(=O)N[C@H](C)C(=O)N[C@@H]([C@H](C)CC(=O)O)C(=O)NCC(=O)N[C@H](CO)C(=O)N[C@@H](CC(=O)O)C(=O)N[C@@H](CC(=O)c2ccccc2N)C(=O)O[C@@H]1C | ≥ 32 | ≥ 32 | ≥ 32 | ≥ 32 | ≥ 32 | ≥ 32 | ≥ 32 | ≥ 32 | ≥ 32
8 | CCCCCCCCCC(=O)N[C@@H](Cc1c[nH]c2ccccc12)C(=O)N[C@@H](CC(N)=O)C(=O)N[C@@H](CC(=O)O)C(=O)N[C@@H]1C(=O)NCC(=O)N[C@@H](CCCN)C(=O)N[C@@H](CC(=O)O)C(=O)N[C@H](C)C(=O)N[C@H](CC(=O)O)C(=O)NCC(=O)N[C@H](CO)C(=O)N[C@@H]([C@@H](C)CC(=O)O)C(=O)N[C@@H](CC(=O)c2ccccc2N)C(=O)O[C@@H]1C | ≥ 32 | 16 | ≥ 32 | ≥ 32 | ≥ 32 | 16 | ≥ 32 | ≥ 32 | 16
9 | CCCCCCCCCC(=O)N[C@@H](Cc1c[nH]c2ccccc12)C(=O)N[C@@H](CC(N)=O)C(=O)N[C@@H](CC(=O)O)C(=O)N[C@@H]1C(=O)NCC(=O)N[C@@H](CCCN)C(=O)N[C@@H](CC(=O)O)C(=O)N[C@H](C)C(=O)N[C@@H](CC(=O)O)C(=O)N(C)CC(=O)N[C@H](CO)C(=O)N[C@@H]([C@@H](C)CC(=O)O)C(=O)N[C@@H](CC(=O)c2ccccc2N)C(=O)O[C@@H]1C | ≥ 32 | ≥ 32 | ≥ 32 | ≥ 32 | ≥ 32 | ≥ 32 | ≥ 32 | ≥ 32 | ≥ 32
10 | CCCCCCCCCC(=O)N[C@@H](Cc1c[nH]c2ccccc12)C(=O)N[C@@H](CC(N)=O)C(=O)N[C@@H](CC(=O)O)C(=O)N[C@@H]1C(=O)NCC(=O)N[C@@H](Cc2ccccc2)C(=O)N[C@@H](CC(=O)O)C(=O)N[C@H](C)C(=O)N[C@@H](CC(=O)O)C(=O)NCC(=O)N[C@H](CO)C(=O)N[C@@H]([C@@H](C)CC(=O)O)C(=O)N[C@@H](CC(=O)c2ccccc2N)C(=O)O[C@@H]1C | ≥ 32 | 16 | ≥ 32 | ≥ 32 | ≥ 32 | 16 | ≥ 32 | ≥ 32 | 16
11 | CCCCCCCCCC(=O)N[C@@H](C)C(=O)N[C@@H](CC(N)=O)C(=O)N[C@@H](CC(=O)O)C(=O)N[C@@H]1C(=O)NCC(=O)N[C@@H](CCCN)C(=O)N[C@@H](CC(=O)O)C(=O)N[C@H](C)C(=O)N[C@@H](CC(=O)O)C(=O)NCC(=O)N[C@H](CO)C(=O)N[C@@H]([C@@H](C)CC(=O)O)C(=O)N[C@@H](CC(=O)c2ccccc2N)C(=O)O[C@@H]1C | ≥ 64 | ≥ 32 | ≥ 32 | ≥ 64 | ≥ 32 | ≥ 32 | ≥ 64 | ≥ 64 | ≥ 32
12 | CCCCCCCCCC(=O)N[C@@H](Cc1c[nH]c2ccccc12)C(=O)N[C@@H](C)C(=O)N[C@@H](CC(=O)O)C(=O)N[C@@H]1C(=O)NCC(=O)N[C@@H](CCCN)C(=O)N[C@@H](CC(=O)O)C(=O)N[C@H](C)C(=O)N[C@@H](CC(=O)O)C(=O)NCC(=O)N[C@H](CO)C(=O)N[C@@H]([C@@H](C)CC(=O)O)C(=O)N[C@@H](CC(=O)c2ccccc2N)C(=O)O[C@@H]1C | 64 | ≥ 32 | ≥ 32 | 32 | ≥ 32 | 16 | 64 | 16 | ≥ 32
13 | CCCCCCCCCC(=O)N[C@@H](Cc1c[nH]c2ccccc12)C(=O)N[C@@H](CC(N)=O)C(=O)N[C@@H](CC(=O)O)C(=O)N[C@@H]1C(=O)NCC(=O)N[C@@H]([C@@H](C)CC)C(=O)N[C@@H](CC(=O)O)C(=O)N[C@H](C)C(=O)N[C@@H](CC(=O)O)C(=O)NCC(=O)N[C@H](CO)C(=O)N[C@@H]([C@@H](C)CC(=O)O)C(=O)N[C@@H](CC(=O)c2ccccc2N)C(=O)O[C@@H]1C | ≥ 64 | 8 | ≥ 32 | 32 | ≥ 32 | 4 | ≥ 64 | ≥ 64 | 8
14 | CCCCCCCCCC(=O)N[C@@H](Cc1c[nH]c2ccccc12)C(=O)N[C@@H](CC(N)=O)C(=O)N[C@@H](CC(=O)O)C(=O)N[C@@H]1C(=O)NCC(=O)N[C@@H](CCC(=O)O)C(=O)N[C@@H](CC(=O)O)C(=O)N[C@H](C)C(=O)N[C@@H](CC(=O)O)C(=O)NCC(=O)N[C@H](CO)C(=O)N[C@@H]([C@@H](C)CC(=O)O)C(=O)N[C@@H](CC(=O)c2ccccc2N)C(=O)O[C@@H]1C | ≥ 32 | 16 | ≥ 32 | ≥ 32 | ≥ 32 | 16 | ≥ 32 | ≥ 32 | ≥ 32
15 | CCCCCCCCCC(=O)N[C@@H](Cc1c[nH]c2ccccc12)C(=O)N[C@@H](CC(N)=O)C(=O)N[C@@H](CC(=O)O)C(=O)N[C@@H]1C(=O)NCC(=O)N[C@@H](CCSC)C(=O)N[C@@H](CC(=O)O)C(=O)N[C@H](C)C(=O)N[C@@H](CC(=O)O)C(=O)NCC(=O)N[C@H](CO)C(=O)N[C@@H]([C@@H](C)CC(=O)O)C(=O)N[C@@H](CC(=O)c2ccccc2N)C(=O)O[C@@H]1C | ≥ 32 | ≥ 32 | ≥ 32 | 32 | ≥ 32 | ≥ 32 | ≥ 32 | ≥ 32 | ≥ 32
